Measurements: US20080200404A1, “Novel Antimalarial 9A-Carbamoyl-Aminoalkyl and 9A-Thiocarbamoyl-Aminoalkyl Azalides” (priority 2005, published 2008)
In brackets after ≈: the same amount, converted by molar mass. Where two headings read alike, the source gives them in different places.

How the values were obtained:
Assay type in all cases: cell-based
[1] = system: Plasmodium falciparum TM91C235; assay: In vitro antimalarial [3H]-hypoxanthine incorporation assay, TM91C235; conditions: P. falciparum TM91C235 (multiple drug resistant isolate), 72 hours exposure; for IC50: Plasmodium falciparum
From the text: (§1) The in vitro screens for intrinsic antimalarial activity were based on modifications of the procedures described by Desjardins R E, Canfield C J, Haynes J D, Chulay J D. (Quantitative assessment of antimalarial activity in vitro by a semiautomated microdilution technique. Antimicrob Agents Chemother. 1979 December; 16(6):710-8.), Chulay J D, Haynes J D, Diggs C L. (Plasmodium falciparum: Assessment of in vitro growth by [3H]hypoxanthine incorporation. Exp. Parasitol. 1983 55:138-146.), and Milhous W K, Weatherly N F, Bowdre J H, Desjardins R E. (In vitro activities of and mechanisms of resistance to antifol antimalarial drugs. Antimicrob Agents Chemother. 1985 April; 27(4):525-30.). The system was limited to the assessment of the intrinsic activity against the erythrocytic asexual life cycle (blood schizontocides). Two Plasmodium falciparum clones from CDC/Indochina III (W-2) and CDC/Sierra Leone I (D-6) (Oduola A M, Weatherly N F, Bowdre J H, Desjardins R E. Plasmodium falciparum: cloning by single-erythrocyte micromanipulation and heterogeneity in vitro. Exp Parasitol. 1988 66(1):86-95.) were used for all assays. TM91C235, a multiple drug resistant isolate from Thailand, was used for the prescreening assay. W-2 is resistant to chloroquine, quinine, and pyrimethamine and susceptible to mefloquine. D-6 tends to be more resistant to mefloquine and susceptible to chloroquine, quinine, and pyrimethamine. All documents cited in this paragraph are incorporated by reference in their entirety.
(§2) All parasites were maintained in continuous long term cultures in RPMI-1640 medium supplemented with 6% washed human A positive (A+)(erythrocytes, 25 mM Hepes, […], and 10% heat inactivated A+human plasma or ALBUMAX® (lipid-rich bovine serum albumin; Invitrogen, Carlsbad, Calif.). All cultures and assays were conducted at 37° C. under an atmosphere of 5% CO2 and 5% O2, with a balance of N2.
The prescreening assay uses TM91C235 diluted at a 0.4% parasitemia in a 1% hematocrit in folic acid free and p-aminobenzoic acid free media RPMI-1640 and ALBUMAX®. One mg of the compound is typically dissolved in 100 μl of dimethyl sulfoxide (DMSO). The compound is further diluted in culture medium (FF) with ALBUMAX® for the first initial starting concentration. The rest of the stock drug solution was kept at −70° C. The isolate was preexposed, in duplicate, at three concentrations (25,000 ng/ml, 2,500 ng/ml, and 25 ng/ml) of the test compound for 48 hr in a 96-well microtiter plate (MTP) using the BIOMEK® 2000 automated laboratory workstation. Each MTP contains chloroquine as control to assess the relative activity of the compound and to monitor the response of TM91C235.
(§3) After the preincubation, [^3H]-hypoxanthine was added to each well of the MTP. (The assay relies on the incorporation of radiolabeled hypoxanthine by the parasites, which indicates reproduction, and inhibition of isotope incorporation was attributed to activity of known or candidate antimalarial drugs). After 72 hr of total incubation time, the MTP were frozen to lyse the erythrocytes and parasites. The parasite DNA was recovered by harvesting the lysate onto glass-fiber filter plates using a Packard FilterMate™ Cell Harvester. The radioactivity was counted on a Packard TopCount™ microplate scintillation counter. The results were recorded as counts per minutes (CPM) per well at each drug concentration divided by the arithmetic mean of the CPM from the three untreated infection parasite control wells.
The serial dilution assay was conducted using the same assay conditions and stock solution of the compound used for the preliminary screen, described above. Both the D-6 and the W-2 clones were used. The compounds were diluted two-fold over 11 different concentration ranges with a starting concentration that was based on the preliminary screen. […]

[2] = system: Plasmodium falciparum clone CDC/Indochina III (W-2); assay: In vitro antimalarial [3H]-hypoxanthine incorporation serial dilution assay, W2; conditions: P. falciparum W2, 72 hours exposure; for IC50: Plasmodium falciparum
From the text: as §1, §2, §3
(§4) The serial dilution assay was conducted using the same assay conditions and stock solution of the compound used for the preliminary screen, described above. Both the D-6 and the W-2 clones were used. The compounds were diluted two-fold over 11 different concentration ranges with a starting concentration that was based on the preliminary screen. For each drug, the concentration response profile was determined and 50% inhibitory concentrations (IC50) were determined by using a non-linear, logistic dose response analysis program. […] For each assay, the IC50 for each clone was determined against the known antimalarials chloroquine and mefloquine. These control values established the compound's relative parasite susceptibility profile compared to known antimalarials. […]
(§5) The in vitro potency of the compounds has been compared with that of azithromycin to better gauge compounds suitable for further testing. As described above, parasites were exposed for 72 hours. Data from the in vitro potency tests of azithromycin against the three parasite strains have been averaged, and these numbers have been used for identification of “active” macrolide compounds.

[3] = system: Plasmodium falciparum clone CDC/Sierra Leone I (D-6); assay: In vitro antimalarial [3H]-hypoxanthine incorporation serial dilution assay, D6; conditions: Plasmodium falciparum, D6, 72 h, P. falciparum D6, 72 hours exposure
From the text: as §1, §2, §3, §4, §5

[4] = compared with azithromycin, read-out: IC50 D6 (class symbol)

| Structure (SMILES) | IC50 [1] [µg/mL] | IC50 [2] [µg/mL] | IC50 ([3]; read-out: IC50 D6) [µg/mL] | IC50 [3, 4] [µg/mL] | IC50 TM91C235 [1] [µg/mL] | IC50 W2 [2] [µg/mL] |
| --- | --- | --- | --- | --- | --- | --- |
| CC[C@H]1OC(=O)[C@H](C)[C@@H](O[C@H]2C[C@@](C)(OC)[C@@H](O)[C@H](C)O2)[C@H](C)[C@@H](O[C@@H]2O[C@H](C)C[C@H](N(C)C)[C@H]2O)[C@](C)(O)C[C@@H](C)CN(CCCNC(=S)Nc2ccc(F)cc2)[C@H](C)[C@@H](O)[C@]1(C)O [Example 99] | 0.131 (≈ 0.139 µM) | 0.0688 (≈ 0.0728 µM) | 0.302 (≈ 0.32 µM) | – | – | – |
| CCC(C)NC(=O)NCCCN1C[C@H](C)C[C@@](C)(O)[C@H](O[C@@H]2O[C@H](C)C[C@H](N(C)C)[C@H]2O)[C@@H](C)[C@H](O[C@H]2C[C@@](C)(OC)[C@@H](O)[C@H](C)O2)[C@@H](C)C(=O)O[C@H](CC)[C@@](C)(O)[C@H](O)[C@H]1C (stereo partly drawn) [Example 55] | 1.05 (≈ 1.18 µM) | 0.435 (≈ 0.489 µM) | – | > 0.797 | – | – |
| CC[C@H]1OC(=O)[C@H](C)[C@@H](O[C@H]2C[C@@](C)(OC)[C@@H](O)[C@H](C)O2)[C@H](C)[C@@H](O[C@@H]2O[C@H](C)C[C@H](N(C)C)[C@H]2O)[C@](C)(O)C[C@@H](C)CN(CCCNC(=S)Nc2cccc(F)c2)[C@H](C)[C@@H](O)[C@]1(C)O.O=CO [Example 131] | 0.115 | 0.198 | 0.507 | – | – | – |
| CC[C@H]1OC(=O)[C@H](C)[C@@H](O[C@H]2C[C@@](C)(OC)[C@@H](O)[C@H](C)O2)[C@H](C)[C@@H](O[C@@H]2O[C@H](C)C[C@H](N(C)C)[C@H]2O)[C@](C)(O)C[C@@H](C)CN(CCCNC(=O)Nc2cccc(F)c2)[C@H](C)[C@@H](O)[C@]1(C)O.O=CO [Example 81] | 0.16 | 0.278 | 0.565 | – | – | – |
| CC[C@H]1OC(=O)[C@H](C)[C@@H](O[C@H]2C[C@@](C)(OC)[C@@H](O)[C@H](C)O2)[C@H](C)[C@@H](O[C@@H]2O[C@H](C)C[C@H](N(C)C)[C@H]2O)[C@](C)(O)C[C@@H](C)CN(CCCNC(=S)Nc2ccc(N(CC)CC)cc2)[C@H](C)[C@@H](O)[C@]1(C)O.O=CO [Example 121] | 0.312 | 0.714 | 0.799 | – | – | – |
| CC[C@H]1OC(=O)[C@H](C)[C@@H](O[C@H]2C[C@@](C)(OC)[C@@H](O)[C@H](C)O2)[C@H](C)[C@@H](O[C@@H]2O[C@H](C)C[C@H](N(C)C)[C@H]2O)[C@](C)(O)C[C@@H](C)CN(CCCNC(=O)Nc2cccc(Cl)c2)[C@H](C)[C@@H](O)[C@]1(C)O.O=CO [Example 80] | 0.117 | 0.186 | 0.451 | – | – | – |
| CC[C@H]1OC(=O)[C@H](C)[C@@H](O[C@H]2C[C@@](C)(OC)[C@@H](O)[C@H](C)O2)[C@H](C)[C@@H](O[C@@H]2O[C@H](C)C[C@H](N(C)C)[C@H]2O)[C@](C)(O)C[C@@H](C)CN(CCCNC(=S)Nc2ccc(Cl)c(C(F)(F)F)c2)[C@H](C)[C@@H](O)[C@]1(C)O [Example 124] | 0.0122 (≈ 0.0118 µM) | 0.0575 (≈ 0.0558 µM) | 0.0559 (≈ 0.0543 µM) | – | – | – |
| CC[C@H]1OC(=O)[C@H](C)[C@@H](O[C@H]2C[C@@](C)(OC)[C@@H](O)[C@H](C)O2)[C@H](C)[C@@H](O[C@@H]2O[C@H](C)C[C@H](N(C)C)[C@H]2O)[C@](C)(O)C[C@@H](C)CN(CCCNC(=O)Nc2c(C)noc2-c2ccccc2)[C@H](C)[C@@H](O)[C@]1(C)O.O=CO [Example 90] | 0.511 | 0.762 | 0.972 | – | – | – |
| CCc1ccc(NC(=O)NCCCN2C[C@H](C)C[C@@](C)(O)[C@H](O[C@@H]3O[C@H](C)C[C@H](N(C)C)[C@H]3O)[C@@H](C)[C@H](O[C@H]3C[C@@](C)(OC)[C@@H](O)[C@H](C)O3)[C@@H](C)C(=O)O[C@H](CC)[C@@](C)(O)[C@H](O)[C@H]2C)cc1 [Example 60] | 0.0933 (≈ 0.0993 µM) | 0.0693 (≈ 0.0738 µM) | 0.212 (≈ 0.226 µM) | – | – | – |
| CC[C@H]1OC(=O)[C@H](C)[C@@H](O[C@H]2C[C@@](C)(OC)[C@@H](O)[C@H](C)O2)[C@H](C)[C@@H](O[C@@H]2O[C@H](C)C[C@H](N(C)C)[C@H]2O)[C@](C)(O)C[C@@H](C)CN(CCCNC(=S)Nc2sc3c(c2C(=O)OC)CCCC3)[C@H](C)[C@@H](O)[C@]1(C)O [Example 148] | 0.426 (≈ 0.407 µM) | 0.24 (≈ 0.229 µM) | 0.862 (≈ 0.825 µM) | – | – | – |
| CC[C@H]1OC(=O)[C@H](C)[C@@H](O[C@H]2C[C@@](C)(OC)[C@@H](O)[C@H](C)O2)[C@H](C)[C@@H](O[C@@H]2O[C@H](C)C[C@H](N(C)C)[C@H]2O)[C@](C)(O)C[C@@H](C)CN(CCCNC(=S)Nc2ccc(Cl)cc2)[C@H](C)[C@@H](O)[C@]1(C)O [Example 103] | 0.103 (≈ 0.108 µM) | 0.0514 (≈ 0.0534 µM) | 0.18 (≈ 0.188 µM) | – | – | – |
| CC[C@H]1OC(=O)[C@H](C)[C@@H](O[C@H]2C[C@@](C)(OC)[C@@H](O)[C@H](C)O2)[C@H](C)[C@@H](O[C@@H]2O[C@H](C)C[C@H](N(C)C)[C@H]2O)[C@](C)(O)C[C@@H](C)CN(CCCNC(=O)Nc2ccc(OC)c(OC3CCCC3)c2)[C@H](C)[C@@H](O)[C@]1(C)O [Example 86] | 0.142 (≈ 0.138 µM) | 0.207 (≈ 0.201 µM) | 0.457 (≈ 0.445 µM) | – | – | – |
| CC[C@H]1OC(=O)[C@H](C)[C@@H](O[C@H]2C[C@@](C)(OC)[C@@H](O)[C@H](C)O2)[C@H](C)[C@@H](O[C@@H]2O[C@H](C)C[C@H](N(C)C)[C@H]2O)[C@](C)(O)C[C@@H](C)CN(CCCNC(=O)NCc2ccco2)[C@H](C)[C@@H](O)[C@]1(C)O [Example 57] | 0.454 (≈ 0.496 µM) | 0.263 (≈ 0.287 µM) | – | > 0.797 | – | – |
| CC[C@H]1OC(=O)[C@H](C)[C@@H](O[C@H]2C[C@@](C)(OC)[C@@H](O)[C@H](C)O2)[C@H](C)[C@@H](O[C@@H]2O[C@H](C)C[C@H](N(C)C)[C@H]2O)[C@](C)(O)C[C@@H](C)CN(CCCNC(=S)NC(=O)c2ccccc2)[C@H](C)[C@@H](O)[C@]1(C)O [Example 100] | 0.275 (≈ 0.288 µM) | 0.102 (≈ 0.107 µM) | 0.284 (≈ 0.298 µM) | – | – | – |
| CC[C@H]1OC(=O)[C@H](C)[C@@H](O[C@H]2C[C@@](C)(OC)[C@@H](O)[C@H](C)O2)[C@H](C)[C@@H](O[C@@H]2O[C@H](C)C[C@H](N(C)C)[C@H]2O)[C@](C)(O)C[C@@H](C)CN(CCNC(=O)NC(C)C)[C@H](C)[C@@H](O)[C@]1(C)O [Example 1, 9-Deoxo-9-dihydro-9a-(N′-isopropylcarbamoyl-β-aminoethyl)-9a-aza-9a-homoerythromycin A] | – | – | – | – | 0.6191 (≈ 0.717 µM) | 1.777 (≈ 2.06 µM) |
| CC[C@H]1OC(=O)[C@H](C)[C@@H](O[C@H]2C[C@@](C)(OC)[C@@H](O)[C@H](C)O2)[C@H](C)[C@@H](O[C@@H]2O[C@H](C)C[C@H](N(C)C)[C@H]2O)[C@](C)(O)C[C@@H](C)CN(CCCNC(=O)Nc2cc(C(=O)OC)cc(C(=O)OC)c2)[C@H](C)[C@@H](O)[C@]1(C)O [Example 72] | 0.422 (≈ 0.411 µM) | – | 0.665 (≈ 0.648 µM) | – | – | – |
| CC[C@H]1OC(=O)[C@H](C)[C@@H](O[C@H]2C[C@@](C)(OC)[C@@H](O)[C@H](C)O2)[C@H](C)[C@@H](O[C@@H]2O[C@H](C)C[C@H](N(C)C)[C@H]2O)[C@](C)(O)C[C@@H](C)CN(CCCNC(=O)Nc2ccc(Cl)cc2)[C@H](C)[C@@H](O)[C@]1(C)O.O=CO [Example 77] | 0.0896 | – | 0.186 | – | – | – |
